# Key:
# [1] = Stability in human plasma measured after 4 hrs; type: ADME, cell-free; settings: read-out: Stability
# [2] = Stability of compound in 3% DMSO/PBS measured after 24 hrs relative to control; type: physicochemical; settings: read-out: Stability
remaining at 4 h [1] [%],remaining at 24 h [2] [%],Structure (SMILES)
77,,CCC[N+]1=C(/C=C/C2=C3Oc4cc(NC(=O)O[C@@H]5/C=C/CCCCC5)ccc4C=C3CCC2)C(C)(C)c2ccccc21
,47.6,O=C(O)c1ccc(-c2[s+]c(-c3ccc(N(c4ccccc4)c4ccccc4)cc3)sc2[O-])cc1

# — ChEMBL document CHEMBL5375991, “Bioorthogonal Bond Cleavage Chemistry for On-demand Prodrug Activation: Opportunities and Challenges” (J Med Chem, 2023)
